System: 349418-098-R-PDC complex spheroid viability
Assay: Anticancer human tumor 349418-098-R-PDC patient-derived lung adenocarcinoma cell line growth inhibition [RAS]
Conditions: for viability, T/C: stronger effect = lower value
Procedure, shortened: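 Agents were tested in combination matrices in half-log decrements from a top concentration at or near clinical Cmax (10 microM if undetermined). Targets were multi-cell spheroids of tumour lines plus HUVEC and MSC stromal cells.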

[1] = curve of first compound, second compound 0.0316 µM
[2] = curve of first compound, second compound 0.1 µM
[3] = curve of first compound, second compound 0.316 µM
[4] = curve of first compound, second compound 1 µM
[5] = second compound 0.0316 µM, first compound 0.0316 µM
[6] = second compound 0.0316 µM, first compound 0.1 µM
[7] = second compound 0.0316 µM, first compound 0.316 µM
[8] = second compound 0.0316 µM, first compound 1 µM
[9] = second compound 0.1 µM, first compound 0.0316 µM
[10] = second compound 0.1 µM, first compound 0.1 µM
[11] = second compound 0.1 µM, first compound 0.316 µM
[12] = second compound 0.1 µM, first compound 1 µM
[13] = second compound 0.316 µM, first compound 0.0316 µM
[14] = second compound 0.316 µM, first compound 0.1 µM
[15] = second compound 0.316 µM, first compound 0.316 µM
[16] = second compound 0.316 µM, first compound 1 µM
[17] = second compound 1 µM, first compound 0.0316 µM
[18] = second compound 1 µM, first compound 0.1 µM
[19] = second compound 1 µM, first compound 0.316 µM
[20] = second compound 1 µM, first compound 1 µM
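Note: spheroids exposed to compound for seven days before viability readout.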

**Q.** With `C=CC(=O)Nc1cc(Nc2nccc(-c3cn(C)c4ccccc34)n2)c(OC)cc1N(C)CCN(C)C` + C=CC(=O)N1CCN(c2nc(OCC3CCCN3C)nc3c(F)c(-c4nc(N)cc(C)c4C(F)(F)F)c(Cl)cc23)C(C)C1 as the molecule, how does the IC50 (curve of first compound, second compound 0.00316 µM) read?
**A.** Its IC50 is > 1 µM.

**Q.** And the IC50 (curve of first compound, second compound 0.01 µM)?
**A.** Its IC50 is > 1 µM.

**Q.** What about the IC50 [1] of the same molecule?
**A.** The IC50 was > 1 µM.

**Q.** What about the IC50 [2] of the same molecule?
**A.** Its IC50 is > 1 µM.

**Q.** And the IC50 [3]?
**A.** Its IC50 is > 1 µM.

**Q.** What about the IC50 [4] of the same molecule?
**A.** Its IC50 is > 1 µM.

**Q.** And the viability, T/C (second compound 0.00316 µM, first compound 0.00316 µM)?
**A.** Its viability, T/C is 80.7%.

**Q.** And the viability, T/C (second compound 0.00316 µM, first compound 0.01 µM)?
**A.** The viability, T/C was 119%.

**Q.** And the viability, T/C (second compound 0.00316 µM, first compound 0.0316 µM)?
**A.** Its viability, T/C is 91.5%.

**Q.** What about the viability, T/C (second compound 0.00316 µM, first compound 0.1 µM) of the same molecule?
**A.** The viability, T/C was 69.9%.

**Q.** And the viability, T/C (second compound 0.00316 µM, first compound 0.316 µM)?
**A.** Its viability, T/C is 64.8%.

**Q.** And the viability, T/C (second compound 0.00316 µM, first compound 1 µM)?
**A.** Its viability, T/C is 72.9%.

**Q.** And the viability, T/C (second compound 0.01 µM, first compound 0.00316 µM)?
**A.** The viability, T/C was 83.7%.

**Q.** What about the viability, T/C (second compound 0.01 µM, first compound 0.01 µM) of the same molecule?
**A.** Its viability, T/C is 97.5%.

**Q.** What about the viability, T/C (second compound 0.01 µM, first compound 0.0316 µM) of the same molecule?
**A.** The viability, T/C was 90.5%.

**Q.** And the viability, T/C (second compound 0.01 µM, first compound 0.1 µM)?
**A.** The viability, T/C was 71.8%.

**Q.** What about the viability, T/C (second compound 0.01 µM, first compound 0.316 µM) of the same molecule?
**A.** The viability, T/C was 61.3%.

**Q.** And the viability, T/C (second compound 0.01 µM, first compound 1 µM)?
**A.** The viability, T/C was 56.6%.

**Q.** What about the viability, T/C (second compound 0.0316 µM, first compound 0.00316 µM) of the same molecule?
**A.** Its viability, T/C is 86.6%.

**Q.** What about the viability, T/C (second compound 0.0316 µM, first compound 0.01 µM) of the same molecule?
**A.** The viability, T/C was 129%.

**Q.** And the viability, T/C [5]?
**A.** Its viability, T/C is 86.1%.

**Q.** And the viability, T/C [6]?
**A.** The viability, T/C was 96%.

**Q.** What about the viability, T/C [7] of the same molecule?
**A.** The viability, T/C was 80.5%.

**Q.** What about the viability, T/C [8] of the same molecule?
**A.** The viability, T/C was 52.8%.

**Q.** What about the viability, T/C (second compound 0.1 µM, first compound 0.00316 µM) of the same molecule?
**A.** Its viability, T/C is 65.5%.

**Q.** And the viability, T/C (second compound 0.1 µM, first compound 0.01 µM)?
**A.** Its viability, T/C is 123%.

**Q.** And the viability, T/C [9]?
**A.** Its viability, T/C is 89.4%.

**Q.** What about the viability, T/C [10] of the same molecule?
**A.** The viability, T/C was 75.4%.

**Q.** What about the viability, T/C [11] of the same molecule?
**A.** The viability, T/C was 87.9%.

**Q.** What about the viability, T/C [12] of the same molecule?
**A.** The viability, T/C was 69.2%.

**Q.** What about the viability, T/C (second compound 0.316 µM, first compound 0.00316 µM) of the same molecule?
**A.** Its viability, T/C is 74.9%.

**Q.** And the viability, T/C (second compound 0.316 µM, first compound 0.01 µM)?
**A.** The viability, T/C was 99.9%.

**Q.** What about the viability, T/C [13] of the same molecule?
**A.** The viability, T/C was 100%.

**Q.** What about the viability, T/C [14] of the same molecule?
**A.** Its viability, T/C is 117%.

**Q.** And the viability, T/C [15]?
**A.** The viability, T/C was 82.6%.

**Q.** What about the viability, T/C [16] of the same molecule?
**A.** Its viability, T/C is 67%.

**Q.** And the viability, T/C (second compound 1 µM, first compound 0.00316 µM)?
**A.** The viability, T/C was 90.8%.

**Q.** What about the viability, T/C (second compound 1 µM, first compound 0.01 µM) of the same molecule?
**A.** The viability, T/C was 96.9%.

**Q.** What about the viability, T/C [17] of the same molecule?
**A.** The viability, T/C was 81.7%.

**Q.** What about the viability, T/C [18] of the same molecule?
**A.** The viability, T/C was 88.4%.

**Q.** And the viability, T/C [19]?
**A.** Its viability, T/C is 88.6%.

**Q.** And the viability, T/C [20]?
**A.** Its viability, T/C is 65.6%.

**Q.** With `CC(Nc1ccc2c(c1)OCCn1cc(N3C(=O)OCC3C(F)F)nc1-2)C(N)=O` (stereo unspecified) + C#Cc1c(F)ccc2cc(O)cc(-c3ncc4c(N5CC6CCC(C5)N6)nc(OCC56CCCN5CC(F)C6)nc4c3F)c12 as the molecule, how does the IC50 [1] read?
**A.** The IC50 was 0.09 µM.

**Q.** What about the IC50 [2] of the same molecule?
**A.** The IC50 was 0.0917 µM.

**Q.** What about the IC50 [3] of the same molecule?
**A.** The IC50 was 0.07 µM.

**Q.** And the IC50 [4]?
**A.** The IC50 was 0.0442 µM.

**Q.** And the IC50 (curve of first compound, second compound 3.16 µM)?
**A.** Its IC50 is 0.071 µM.

**Q.** What about the IC50 (curve of first compound, second compound 10 µM) of the same molecule?
**A.** Its IC50 is < 0.0316 µM.

**Q.** What about the viability, T/C [5] of the same molecule?
**A.** The viability, T/C was 78.3%.

**Q.** What about the viability, T/C [6] of the same molecule?
**A.** Its viability, T/C is 43.2%.

**Q.** And the viability, T/C [7]?
**A.** The viability, T/C was 37.1%.

**Q.** And the viability, T/C [8]?
**A.** Its viability, T/C is 11.6%.

**Q.** And the viability, T/C (second compound 0.0316 µM, first compound 3.16 µM)?
**A.** The viability, T/C was 11.7%.

**Q.** What about the viability, T/C (second compound 0.0316 µM, first compound 10 µM) of the same molecule?
**A.** Its viability, T/C is 11.8%.

**Q.** What about the viability, T/C [9] of the same molecule?
**A.** The viability, T/C was 80.4%.

**Q.** What about the viability, T/C [10] of the same molecule?
**A.** Its viability, T/C is 39.4%.

**Q.** And the viability, T/C [11]?
**A.** The viability, T/C was 39.1%.

**Q.** What about the viability, T/C [12] of the same molecule?
**A.** The viability, T/C was 19.9%.

**Q.** What about the viability, T/C (second compound 0.1 µM, first compound 3.16 µM) of the same molecule?
**A.** Its viability, T/C is 12.7%.

**Q.** And the viability, T/C (second compound 0.1 µM, first compound 10 µM)?
**A.** The viability, T/C was 11.2%.

**Q.** What about the viability, T/C [13] of the same molecule?
**A.** Its viability, T/C is 71%.

**Q.** And the viability, T/C [14]?
**A.** Its viability, T/C is 39.7%.

**Q.** And the viability, T/C [15]?
**A.** Its viability, T/C is 26.8%.

**Q.** And the viability, T/C [16]?
**A.** Its viability, T/C is 16.9%.

**Q.** What about the viability, T/C (second compound 0.316 µM, first compound 3.16 µM) of the same molecule?
**A.** Its viability, T/C is 15.3%.

**Q.** And the viability, T/C (second compound 0.316 µM, first compound 10 µM)?
**A.** Its viability, T/C is 13.7%.

**Q.** And the viability, T/C [17]?
**A.** Its viability, T/C is 51.8%.

**Q.** What about the viability, T/C [18] of the same molecule?
**A.** The viability, T/C was 45.9%.

**Q.** What about the viability, T/C [19] of the same molecule?
**A.** The viability, T/C was 25.5%.

**Q.** What about the viability, T/C [20] of the same molecule?
**A.** The viability, T/C was 12.4%.

**Q.** What about the viability, T/C (second compound 1 µM, first compound 3.16 µM) of the same molecule?
**A.** Its viability, T/C is 16.2%.

**Q.** What about the viability, T/C (second compound 1 µM, first compound 10 µM) of the same molecule?
**A.** The viability, T/C was 10.6%.

**Q.** And the viability, T/C (second compound 3.16 µM, first compound 0.0316 µM)?
**A.** Its viability, T/C is 63.5%.

**Q.** What about the viability, T/C (second compound 3.16 µM, first compound 0.1 µM) of the same molecule?
**A.** Its viability, T/C is 42.7%.

**Q.** What about the viability, T/C (second compound 3.16 µM, first compound 0.316 µM) of the same molecule?
**A.** The viability, T/C was 30.5%.

**Q.** And the viability, T/C (second compound 3.16 µM, first compound 1 µM)?
**A.** Its viability, T/C is 12.9%.

**Q.** What about the viability, T/C (second compound 3.16 µM, first compound 3.16 µM) of the same molecule?
**A.** Its viability, T/C is 12.8%.

**Q.** And the viability, T/C (second compound 3.16 µM, first compound 10 µM)?
**A.** Its viability, T/C is 13.5%.

**Q.** What about the viability, T/C (second compound 10 µM, first compound 0.0316 µM) of the same molecule?
**A.** The viability, T/C was 35.9%.

**Q.** What about the viability, T/C (second compound 10 µM, first compound 0.1 µM) of the same molecule?
**A.** Its viability, T/C is 28.3%.

**Q.** What about the viability, T/C (second compound 10 µM, first compound 0.316 µM) of the same molecule?
**A.** Its viability, T/C is 9.51%.

**Q.** And the viability, T/C (second compound 10 µM, first compound 1 µM)?
**A.** The viability, T/C was 4.69%.

**Q.** And the viability, T/C (second compound 10 µM, first compound 3.16 µM)?
**A.** Its viability, T/C is 5.91%.

**Q.** And the viability, T/C (second compound 10 µM, first compound 10 µM)?
**A.** Its viability, T/C is 2.82%.

**Q.** What does the source list for `CC(=O)OC12COC1CC(O)C1(C)C(=O)C(O)C3=C(C)C(OC(=O)C(O)C(NC(=O)OC(C)(C)C)c4ccccc4)CC(O)(C(OC(=O)c4ccccc4)C21)C3(C)C` (stereo unspecified)?
**A.** viability, T/C (compound 0.0316 µM): 14.5% [middle of 4 runs]; viability, T/C (compound 0.1 µM): 14.6% [middle of 4 runs]; viability, T/C (compound 0.316 µM): 17.6% [middle of 4 runs]; viability, T/C (compound 1 µM): 15.2% [middle of 4 runs]; viability, T/C (compound 3.16 µM): 24.6% [middle of 4 runs]; viability, T/C (compound 10 µM): 25.8% [middle of 4 runs]; IC50 (curve of compound): < 0.0316 µM

From PubChem BioAssay AID2060904 (Molecular Pharmacology Branch, DTP, NCI, 2025)
